From patent US20080125406A1, “Method for Treating Primary and Secondary Forms of Glaucoma” (priority 2005, published 2008)
Several values for one entry are separate records, joined by “and”; a condition that tells them apart may be missing. Equal entries are not always repeated.

Key:
[1] = system: IOP of patients with glaucoma caused by intravitreal injections of glucocorticoids; test: Single administration of anecortave acetate in patients with glaucoma caused by intravitreal glucocorticoids, Example 3; assay type: in vivo, human (patients)
Excerpt: All patients were on maximal tolerated medical therapy for glaucoma and continued on their pre-study medications for the duration of the study.
In this group of eight eyes, three of which had prior intraocular surgery, and all of which were on at least three different types of glaucoma medications (maximum 6 medications and a mean of 4.1 different drug classes) the IOP decrease was seen as early as one week (mean 11.4 mm Hg), and appeared to reach a maximum decrease at three weeks (mean 16.4 mm Hg). FIG. 3 illustrates the decrease in IOP observed in these patients for twenty months.

[2] = system: IOP of patients; test: Randomized dose study of anecortave acetate AJD 3, 15, 30 mg vs vehicle, Example 6; assay type: in vivo, human (patients)
Description: Eligible patients were randomized into four groups to receive AJD as follows: • Anecortave acetate vehicle, 0.5 mL (21 patients) • Anecortave acetate 3 mg (0.5 mL, 0.6% suspension) (22 patients) • Anecortave acetate 15 mg (0.5 mL, 3% suspension) (20 patients) • Anecortave acetate 30 mg (0.5 mL, 6% suspension) (22 patients).
The site of the AJD injection was 3-5 mm from the limbus, inferiorly (between 4 and 8 o'clock, FIG. 1), and the drug was injected slowly (30-90 sec) using a 30 gauge needle.

[3] = system: IOP elevation associated with topical dexamethasone; conditions: topical administration, rabbits; cited from earlier work
[4] = system: IOP of patients with primary open angle glaucoma; test: Single anterior juxtascleral depot (AJD) of anecortave acetate in glaucoma patients, Example 2; assay type: in vivo, human (patients); conditions: single ~24 mg AJD
Excerpt: Methods: An investigator IND and IRB approval was obtained. All patients gave informed consent. […] Prior glaucoma medications were not changed throughout study. Results: Six subjects with glaucoma and IOP≧23 mmHg (POAG [4], PDS [1], PXF [1]) mean age 59+/−8 years. Mean C/D ratio 0.8+/−0.2. Prior glaucoma medications included prostaglandins, beta blockers and/or alpha agonists (four on 1, one on 3, and one on 4). Mean pretreatment IOP was 31.3+/−11.3 mmHg. […] Patients were followed for twelve (12) months. The IOP-lowering effects peaked at approximately one month. The duration of effectiveness of the anecortave acetate was at least twelve (12) months. […] Treatment with prior glaucoma medications was discontinued for two patients due to the surprising IOP-lowering effects of the juxtasclerally administered anecortave acetate. This new method of treatment obviates problems with eye drops and many issues with compliance. Clinically meaningful additional medium-term IOP reduction is possible with a single anterior juxtascleral depot injection of anecortave acetate, much more than presently obtained with any currently available adjunctive medications.

[5] = system: myocilin expression in trabecular meshwork cells; conditions: cultured trabecular meshwork cells; cited from earlier work
[6] = system: IOP of Dutch Belted rabbits having elevated IOP; test: Brinzolamide anterior sub-Tenon's or topical administration in rabbits with elevated IOP, Example 4; assay type: in vivo; conditions: for mean percent IOP change from baseline compared to BSS control: over 7 days
Description: Eyes of Dutch Belted rabbits having elevated IOP were injected in the anterior segment with a carbonic anhydrase inhibitor.
Methods: Baseline IOP was measured daily for 5 days and averaged. Seven rabbits received one anterior sub-Tenon's capsule administration of 800 μl of a non-optimized 1% ophthalmic suspension of brinzolamide (AZOPT®). Seven rabbits received a 1% ophthalmic suspension of brinzolamide (AZOPT®) delivered topically once per day for seven days. Seven rabbits received one anterior sub-Tenon's administration of 800 μl of BSS®. IOP was monitored daily at 2 hours after topical drops were administered, for seven days, and weekly thereafter until IOP measurements remained the same as baseline for two measurements. […] Mean pretreatment IOP was 27.41 mm Hg. Mean change in IOP for this group was +0.18 mm Hg. Rabbits receiving either daily topical administration or subtenon's injection of brinzolamide experienced sustained lowering of IOP. For the topical administration group mean pretreatment IOP was 28.37 mm Hg. Mean change in IOP for this group was −2.48 mm Hg. […] For the group receiving one anterior subtenon's administration of a 1% brinzolamide ophthalmic suspension the mean pretreatment IOP was 27.44 mm Hg. Mean change in IOP for this group was −1.85 mm Hg. […] (See FIG. 4). […] Longer duration of action of the brinzolamide suspension from the subtenon's capsule could be achieved using higher concentration suspensions (e.g. 5% or 10%) or via encapsulation in sustained release dose forms such as microspheres.

[7] = system: IOP; conditions: intravitreal injection (Singh et al. 2004); cited from earlier work
[8] = mean pretreatment IOP 31.3+/-11.3 mmHg

In the case of `CC(=O)OCC(=O)[C@@]1(O)CC[C@H]2[C@@H]3CCC4=CC(=O)CC[C@]4(C)C3=CC[C@@]21C` [anecortave acetate, 4, 9(11)-pregnadien-17∝,21-diol-3,20-dione-21-acetate], the “IOP, individual eyes, 1 week” value ([1]; 1 week after single ~24 mg, baselines 34-57) is reported as 30 mm Hg (2×) and 34 mm Hg (2×) and 24 mm Hg (2×) and 23 mm Hg, the “Mean IOP, 1 week” value ([1]; 1 week, mean baseline 40.125) is reported as 28.43 mm Hg and the “IOP, individual eyes, 2 mon” value ([1]; 2 mon after single ~24 mg) is reported as 30 mm Hg and 24 mm Hg and 16 mm Hg and 19 mm Hg and 23 mm Hg. The “Mean IOP, 2 mon” value ([1]; 2 mon, mean baseline 40.125) was 22 mm Hg, the “IOP, individual eyes, 2 weeks” value ([1]; 2 weeks after single ~24 mg, baselines 34-57) was 28 mm Hg (2×) and 32 mm Hg and 19 mm Hg (2×) and 23 mm Hg and 35 mm Hg and the “Mean IOP, 2 weeks” value ([1]; 2 weeks, mean baseline 40.125) was 24.8 mm Hg. The “IOP, individual eyes, 3 mon” value ([1]; 3 mon after single ~24 mg) was 32 mm Hg and 18 mm Hg (2×) and 21 mm Hg and 19 mm Hg, the “Mean IOP, 3 mon” value ([1]; 3 mon, mean baseline 40.125) was 19.3 mm Hg and the “IOP, individual eyes, 3 weeks” value ([1]; 3 weeks after single ~24 mg) was 30 mm Hg and 17 mm Hg and 19 mm Hg (2×) and 37 mm Hg. For the same compound, the “Mean IOP, 3 weeks” value ([1]; 3 weeks, mean baseline 40.125) was 24.4 mm Hg, the “IOP, individual eyes, 4 mon” value ([1]; 4 mon after single ~24 mg) was 17 mm Hg and 16 mm Hg and 23 mm Hg and 21 mm Hg and the “Mean IOP, 4 mon” value ([1]; 4 mon, mean baseline 40.125) was 20 mm Hg. For the same compound, the “IOP, individual eyes, 4 weeks” value ([1]; 4 weeks after single ~24 mg) was 30 mm Hg (2×) and 28 mm Hg and 31 mm Hg and 14 mm Hg and 21 mm Hg and 19 mm Hg and 36 mm Hg, the “Mean IOP, 4 weeks” value ([1]; 4 weeks, mean baseline 40.125) was 26.1 mm Hg and the “IOP, individual eyes, 5 mon” value ([1]; 5 mon after single ~24 mg) was 15 mm Hg and 17 mm Hg and 21 mm Hg and 22 mm Hg. The “Mean IOP, 5 mon” value ([1]; 5 mon, mean baseline 40.125) was 20 mm Hg, the “IOP, individual eyes, 6 mon” value ([1]; 6 mon after single ~24 mg) was 19 mm Hg (3×) and 15 mm Hg and the “Mean IOP, 6 mon” value ([1]; 6 mon, mean baseline 40.125) was 17.6 mm Hg. The “IOP, individual eyes, 6.2 mon” value ([1]; 6.2 mon after single ~24 mg) was 26 mm Hg, the “IOP, individual eyes, 6.5 mon” value ([1]; 6.5 mon after single ~24 mg) was 38 mm Hg and the “IOP, individual eyes, 7 mon” value ([1]; 7 mon after single ~24 mg) was 17 mm Hg and 18 mm Hg (2×). The “Mean IOP, 7 mon” value ([1]; 7 mon, mean baseline 40.125) was 17.6 mm Hg, the “Mean IOP, 8 mon” value ([1]; 8 mon) was 26.5 mm Hg and the “IOP, individual eyes, 8 mon” value ([1]; 8 mon after single ~24 mg) was 31 mm Hg and 22 mm Hg. The “Mean IOP, 9 mon” value ([1]; 9 mon) was 17.3 mm Hg, the “IOP, individual eyes, 9 mon” value ([1]; 9 mon after single ~24 mg) was 15 mm Hg and 19 mm Hg and 18 mm Hg and the “Mean IOP, 12 mon” value ([1]; 12 mon) was 19.6 mm Hg. For the same compound, the “IOP, individual eyes, 12 mon” value ([1]; 12 mon after single ~24 mg) was 15 mm Hg and 22 mm Hg (2×), the “Mean IOP, 13 mon” value ([1]; 13 mon) was 19.6 mm Hg and the “IOP, individual eyes, 13 mon” value ([1]; 13 mon after single ~24 mg) was 18 mm Hg and 22 mm Hg and 19 mm Hg. For the same compound, the “Mean IOP, 14 mon” value ([1]; 14 mon) was 25.5 mm Hg, the “IOP, individual eyes, 14 mon” value ([1]; 14 mon after single ~24 mg) was 25 mm Hg and 26 mm Hg and the “Mean IOP, 15 mon” value ([1]; 15 mon) was 24 mm Hg. The “IOP, individual eyes, 15 mon” value ([1]; 15 mon after single ~24 mg) was 26 mm Hg and 22 mm Hg, the “Mean IOP, 17 mon” value ([1]; 17 mon) was 18.5 mm Hg and the “IOP, individual eyes, 17 mon” value ([1]; 17 mon after single ~24 mg) was 19 mm Hg and 18 mm Hg. The “Mean IOP, 18 mon” value ([1]; 18 mon) was 18 mm Hg, the “IOP, individual eyes, 18 mon” value ([1]; 18 mon after single ~24 mg) was 19 mm Hg and 17 mm Hg and the “IOP, individual eyes, 20 mon” value ([1]; 20 mon after single ~24 mg) was 16 mm Hg. The “IOP decrease in all eyes” value ([1]; eight eyes, single ~24 mg) was “All eyes had marked IOP decrease”, the “mean IOP decrease at one week” value ([1]; eight eyes, single ~24 mg) was 11.4 mm Hg and the “mean IOP decrease at three weeks (maximum decrease)” value ([1]; eight eyes, single ~24 mg) was 16.4 mm Hg. For the same compound, the “IOP decrease in one eye at 2 months” value ([1]; eye that needed filtration surgery, resultant IOP 30 mm Hg) was 45%, the “time for which recurrence of elevated IOP was prevented” value ([1]; remaining five eyes, IOP elevation due to triamcinolone reversed) was “up to 12 months” and the adverse events ([1]; single ~24 mg) was “without adverse events”. For the same compound, the “duration of IOP reductions” value ([1]; single ~24 mg) was “at least 6 months”, the “patients avoiding glaucoma filtration surgery” value ([1]; single ~24 mg) was 75% and the “patients who maintained an IOP of ≦21 mm Hg for 3 months” value (“patients who maintained an IOP” below) ([2]; 3 mg group (22 patients)) was 7 patients. For the same compound, the “patients who maintained an IOP” value ([2]; 15 mg group (20 patients)) was 6 patients, the “patients who maintained an IOP” value ([2]; 30 mg group (22 patients)) was 11 patients and the “duration of IOP reductions after a single administration” value ([2]; p<0.05 for all concentrations relative to vehicle at month 3, ANOVA) was ≥ 3 months. For the same compound, the “effect on IOP elevation associated with topical dexamethasone” value [3] was “decreases the IOP elevation”, the “mean IOP decrease at 3 months (percent)” value [4] was 38.5%+/−21% and the “time at which IOP-lowering effects peaked” value [4] was “approximately one”. For the same compound, the “clinically significant adverse events” value ([4]; followed 12 months) was “No clinically significant adverse events occurred”, the duration of effectiveness ([4]; followed 12 months) was ≥ 12 months and the “patients with >25% IOP decrease at 3 months” value ([4]; prior glaucoma medications unchanged, six subjects, IOP>=23 mmHg) was “Five of six”. The “mean IOP at 3 months” value [4, 8] was 16.4+/−6 mm Hg, the “mean IOP decrease at 3 months” value [4, 8] was 10.8+/−7.0 mmHg and the “patients whose prior glaucoma medications were discontinued due to IOP-lowering effect” value ([4]; six subjects) was “two”. The “effect on dexamethasone induced myocilin expression” value [5] was “inhibition”.
In the case of `CCN[C@H]1CN(CCCOC)S(=O)(=O)c2sc(S(N)(=O)=O)cc21` [brinzolamide], the “maximum IOP lowering from baseline” value ([6]; 1% suspension topically once per day for seven days) is reported as 11.1%, the “Mean change in IOP” value ([6]; 1% suspension topically once per day for seven days, mean pretreatment IOP 28.37 mm Hg) is reported as −2.48 mm Hg and the “time of peak levels of IOP change” value ([6]; both topical and subtenon's groups) is reported as ≤ 3 days. For the same compound, the “maximum percent IOP lowering” value ([6]; one anterior sub-Tenon's administration of 800 μl 1% suspension) was 15.9%, the “Mean change in IOP” value ([6]; one anterior sub-Tenon's administration of 800 μl 1% suspension, mean pretreatment IOP 27.44 mm Hg) was −1.85 mm Hg and the “mean percent IOP change from baseline compared to BSS control” value ([6]; subtenon's injection group) was “statistically lower at all points”. For the same compound, the “mean percent IOP change from baseline compared to BSS control” value ([6]; topical administration group) was “statistically lower at all points”.
In the case of `CC1(C)O[C@@H]2C[C@H]3[C@@H]4CCC5=CC(=O)C=C[C@]5(C)[C@@]4(F)[C@@H](O)C[C@]3(C)[C@]2(C(=O)CO)O1` [triamcinolone, triamcinolone acetonide], the IOP reached [7] is listed as ~60 mm Hg and the “earliest onset of IOP elevation” value [7] is listed as 4 days.
